# Test results from US7528175B2, “Method of treating airway diseases with beta-adrenergic inverse agonists” (Inverseon, Inc., priority 2005, dated 2009).
# “Also recorded” adds a separate entry of the source. Read-outs that look alike come from different tables or passages of the source.
# Columns and labels:
# asthmatic mice [1] = experiment: Airway resistance (Raw) response to methacholine in murine model of asthma (forced oscillation); assay type: in vivo, Balb/cJ mice
# Procedure: Balb/cJ mice aged 6 weeks (Jackson Animal Laboratory, Bar Harbor, Me.) were housed under specific pathogen-free conditions and fed a chicken ovalbumin-free diet. The Animal Research Ethics Boards of both the University of Houston and the Baylor College of Medicine approved all experiments reported here. […] Mice were sensitized with subcutaneous injection of 25 μg of ovalbumin adsorbed to aluminum hydroxide on protocol days 2, 9, and 16. Subsequently, mice were given 50 μL of saline solution containing 25 μg of ovalbumin intranasally, on a daily basis, from protocol days 23 through 27. A group of ovalbumin-sensitized saline-challenged mice serves as controls for systemic sensitization and respiratory challenges with ovalbumin. Prior to intranasal administrations, mice were sedated with halothane vapor.
# To examine the effects of duration of β-adrenergic ligand therapy on the phenotype of the murine model of asthma, the experimental drugs were administered either acutely or chronically to different groups of asthmatic mice.
# Asthmatic mice on acute therapy were given a single intravenous bolus infusion of either β-adrenergic drug or normal saline on protocol day 28, 15 minutes before airway responsiveness to methacholine was determined. […] […] […] These concentrations were chosen based on those producing therapeutic effects in mice in previously published studies. The non-asthmatic mice were fed normal chow.
# On protocol day 28, mice were anesthetized, tracheotomized, and connected to a computer-controlled small animal ventilator (Flexivent, Scientific Respiratory Equipment, Inc., Montreal, Canada). Airway resistance (Raw) was measured using the forced oscillation technique. The cellular composition of bronchoalveolar lavage fluid (BALF) was also determined.
# To induce airway constriction, a solution containing 150 μg/mL of acetyl-α-methylcholine chloride (methacholine) (Sigma Chemical, St. Louis, Mo.) was infused intravenously at constant rates using a syringe infusion pump (Raze Scientific Instruments, Stanford, Conn.). […] Each methacholine dose was administered for 3 to 5 minutes, during which data were sampled at 1-minute intervals and then averaged.
# The complex input impedance of the respiratory system was computed and the value of the real part of respiratory system impedance at 19.75 Hz was taken to reflect the magnitude of airway resistance (Raw). To examine the degree of airway responsiveness of each animal, the values for Raw as a function of methacholine doses were plotted. The largest value for Raw achieved in response to methacholine stimulation was referred to as Rawpeak. For mice that achieved a plateau in the methacholine dose-Raw response curve, the ED50 was calculated by linear interpolation using the GraphPad Prism4 (GraphPad Software, Inc.). […] The Bonferroni test was used to examine the statistical differences between experimental groups. The effects of acute drug treatments on baseline respiratory system mechanics were assessed using a two-tailed paired t-test. A value of P<0.05 was considered significant.
# For these experiments, salbutamol was used for chronic administration at 0.5 mg/kg/day with a minipump and for acute administration at 0.15 mg/kg by i.v. bolus 15 minutes prior to challenge. Alprenolol was used at a high dose of 7200 ppm in chow or at a low dose of 720 ppm in chow. Carvedilol was used at a high dose of 2400 ppm in chow or at a low dose of 720 ppm in chow.
# patients with CHF = conditions: cited from earlier work
# [2] = tested on: tracheas from asthmatic mice; conditions: chronic treatment of asthmatic mice, excised tracheas; cited from earlier work
# asthmatic mice [3] = experiment: BALF cell number and type (Example 11); assay type: in vivo; conditions: vs nontreated asthmatic mice
# Excerpt: The same mice as described in Example 1 underwent bronchoalveolar lavage (BAL) to determine the total number and type of immune system cells in the lung. BAL Fluid (BALF) was irrigated and collected from the lungs of mice as previously described (Evans K L, Bond R A, Corry […]. Frequency dependence of respiratory system mechanics during induced constriction in a murine model of asthma. J Appl Physiol. 2003 January;94(1):245-52). […] The number of neutrophils was increased in nontreated asthmatic mice compared to mice that served as controls for chronic beta-blocker treatments. In comparison to their notable effects on airway responsiveness, the β-AR ligands tested had very little effect on BALF cellularity. […] FIG. 12 has 3 panels of cell number and type of cells from the bronchoalveolar lavage fluid of asthmatic mice treated acutely or chronically with beta adrenergic ligands. Cells were identified as eosinophils (black bars), macrophages (hatched bars), neutrophils (grey bars), and lymphocytes (white bars) by standard morphologic criteria. At least 200 cells were counted per cytospin preparation, and the absolute number of each cell type was calculated based on the volume of fluid recovered from the lavage. […] Data are expressed as mean ±SEM and are representative of 6-25 animals per group. #P<0.05 compared to NTX, *P<0.05 compared to control (ANOVA).
# β2-adrenergic receptor [4] = assay type: binding, mice; conditions: 2 days of administration
# Procedure: (§1) β2-adrenergic receptor numbers were measured in asthmatic mice as follows. […] Mice were sacrificed and lung membranes were isolated as follows. Frozen lung tissue was homogenized in an ice-cold buffer containing 0.32 M sucrose and 25 mM Tris (pH 7.4) using a polytron (Pro 200, Pro Scientific, Inc.). The homogenate was centrifuged at 1000×g for 10 min at 4° C. The resulting supernatant was centrifuged at 40,000×g for 20 min at 4° C. The pellet was suspended in an ice-cold 25 mM Tris-HCl buffer (pH 7.4) and centrifuged at 40,000×g for 20 min at 4° C. The final pellet was suspended in 200 μL of 25 mM Tris-HCl (pH 7.4); membrane protein concentration was determined by BCA protein assay kit. […] The incubation was done at 37° C. for 2 h and terminated by rapid vacuum filtration through glass fiber filters. The filters were washed three times with 250 μL of cold wash buffer (25 mM Tris-HCl, pH 7.4) and the radioactivity determined in a counter. […] Receptor densities are expressed as femtomoles of sites per milligram of protein. Bmax is determined by nonlinear regression of the saturation binding curves.
# β2-adrenergic receptor [5] = target: β2-adrenergic receptor (Mus musculus, UniProt P18762); assay type: binding, mice
# Chain of β2-adrenergic receptor (Mus musculus, UniProt P18762) (P18762 whole entry): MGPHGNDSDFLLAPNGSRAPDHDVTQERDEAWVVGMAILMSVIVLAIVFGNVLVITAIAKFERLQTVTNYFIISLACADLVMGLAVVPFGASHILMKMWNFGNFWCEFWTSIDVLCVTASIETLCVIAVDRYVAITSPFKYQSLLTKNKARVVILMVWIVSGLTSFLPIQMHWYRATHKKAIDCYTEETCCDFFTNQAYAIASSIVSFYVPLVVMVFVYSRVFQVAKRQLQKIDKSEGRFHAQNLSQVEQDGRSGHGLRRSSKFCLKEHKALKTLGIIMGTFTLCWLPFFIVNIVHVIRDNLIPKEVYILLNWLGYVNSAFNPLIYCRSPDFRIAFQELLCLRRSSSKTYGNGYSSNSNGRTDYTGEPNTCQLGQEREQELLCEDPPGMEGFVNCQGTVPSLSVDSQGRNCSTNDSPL
# Procedure: as §1
# asthmatic mice [6] = experiment: Airway hyperresponsiveness, combination of carvedilol and salbutamol vs carvedilol monotherapy; assay type: in vivo, Balb/cJ mice; conditions: 28 days treatment; highest dose of methacholine
# Procedure: Mice (Balb/cJ) aged 6 weeks were housed under specific pathogen-free conditions and fed a chicken ovalbumin-free diet. Mice were systemically sensitized with ovalbumin adsorbed to aluminum hydroxide. Mice were treated as follows: CAR/SAL 28D=for 28 days mice (n=6-12) were administered carvedilol (2400 ppm in animal chow) and salbutamol (subcutaneous delivery of 0.5 mg/kg/day in an Alzet #2400 osmotic minipump); NTX S/C=mice (n=6-12) no drug treatment for 28 days; CTRL=mice (n=6-12) no drug treatment for 28 days, not subsequently challenged; CARHD 28D=for 28 days mice (n=6-12) were administered carvedilol only (2400 ppm in animal chow); CARHD 28D SAL AC=for 28 days mice (n=6-12) were administered carvedilol (2400 ppm in animal chow) and 15 minutes prior to measuring airway hyperresponsiveness, salbutamol was administered at a dose of […].
# To measure airway hyperresponsiveness after 28 days, all mice except the CTRL (control) mice were challenged with ovalbumin and then all mice were anesthetized, tracheotomized, and connected to a Flexivent small animal ventilator to measure airway resistance (Raw) by the forced oscillation technique. To induce airway constriction, a solution containing 150 μg/mL of methacholine was infused using a syringe infusion pump. The methacholine infusion was started at 0.008 mL/min and its rate was doubled stepwise up to a maximum […]. […]
smiles,measurement,setting,value
COc1ccccc1OCCNCC(O)COc1cccc2[nH]c3ccccc3c12 (stereo not shown) [carvedilol],Decreased Raw,asthmatic mice [1]; 15 minutes of administration,no
same,Decreased Raw,asthmatic mice [1]; 2 days of administration,no
same,Decreased Raw,asthmatic mice [1]; 28 days of administration,yes
same,airway responsiveness to methacholine provocation (Raw),"asthmatic mice [1]; asthmatic mice, acute: single intravenous bolus 15 minutes before methacholine",enhanced the airway responsiveness
same,sensitivity of the responsiveness to methacholine,"asthmatic mice [1]; asthmatic mice, chronic administration",shifts the sensitivity of the responsiveness to methacholine to lower concentrations
same,airway responsiveness to methacholine provocation (Raw),"asthmatic mice [1]; asthmatic mice, chronic administration for 28 days",does reduce airway hyperresponsiveness; also recorded: reduced the responsiveness of asthmatic mice to methacholine provocation
same,protection from airway hyperresponsiveness,"asthmatic mice [1]; chronic administration, low and high doses in chow (FIGS. 8D-8G)",providing protection from airway hyperresponsiveness
same,clinical outcome in congestive heart failure,patients with CHF,significant mortality reduction
same,effectiveness on tracheal contraction in response to methacholine (rank),[2],followed by carvedilol
same,BALF cellularity,asthmatic mice [3]; acute treatment (15 minutes),had no effects on BALF cellularity
same,BALF cellularity,asthmatic mice [3]; chronic treatment (28 days),had no effects on BALF cellularity
same,Increased β2AR density,β2-adrenergic receptor [4],no
same,Bmax,"β2-adrenergic receptor [5]; 15 Minutes drug treatment, lung membranes of asthmatic mice, mean±SEM",86.3 ± 19.42 femtomoles of sites per milligram of protein
same,βmax,"β2-adrenergic receptor [5]; 28 Days drug treatment, lung membranes of asthmatic mice, mean±SEM",904.1 ± 43.46 femtomoles of sites per milligram of protein
same,Increased β2AR density,β2-adrenergic receptor [5]; 15 minutes of administration,no
same,Increased β2AR density,β2-adrenergic receptor [5]; 28 days of administration,showed an increase in receptor density at 28 days
same,Increased β2AR density,"β2-adrenergic receptor [5]; 28 days of administration, listed as Carvedilol",yes
same,increase of the level of β2-adrenergic receptors over the non-treated mice,β2-adrenergic receptor [5]; chronic administration,over 10 fold
same,bronchoconstriction / airway hyperresponsiveness (Raw),asthmatic mice [6],higher bronchoconstriction than these treatments but less than the non-drug treated sensitized and challenged (NTX S/C) mice
